From US10654867B2 (Genentech, Inc., priority 2016, dated 2020)

Target: T1, estrogen receptor alpha (ESR1) in MCF7 breast cancer cells (Homo sapiens, UniProt P03372)
T1 sequence (P03372 1-595): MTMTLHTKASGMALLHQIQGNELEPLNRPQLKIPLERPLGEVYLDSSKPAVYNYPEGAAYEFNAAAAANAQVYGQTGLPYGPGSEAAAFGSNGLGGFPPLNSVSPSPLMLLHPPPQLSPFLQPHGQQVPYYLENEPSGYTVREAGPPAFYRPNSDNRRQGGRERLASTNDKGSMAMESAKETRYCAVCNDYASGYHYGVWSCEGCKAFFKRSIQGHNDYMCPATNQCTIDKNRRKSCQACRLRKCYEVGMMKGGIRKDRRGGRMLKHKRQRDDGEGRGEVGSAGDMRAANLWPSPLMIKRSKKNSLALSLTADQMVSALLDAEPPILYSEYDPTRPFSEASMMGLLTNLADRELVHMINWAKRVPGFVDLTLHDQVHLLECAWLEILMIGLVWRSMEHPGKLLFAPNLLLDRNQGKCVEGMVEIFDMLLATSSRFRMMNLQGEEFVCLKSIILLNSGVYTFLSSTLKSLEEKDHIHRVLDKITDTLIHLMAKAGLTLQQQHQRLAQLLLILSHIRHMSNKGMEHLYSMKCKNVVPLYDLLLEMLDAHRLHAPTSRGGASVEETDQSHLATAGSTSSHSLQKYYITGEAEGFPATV
Assay: Breast Cancer Cell ERa High Content Fluorescence Imaging Degradation Assay (ER-alpha MCF7 HCS)
Format: cell-based
Design: endogenous in cells; host or cells: MCF7 breast cancer cells; key to ERalpha (WT) MCF7HCS (Sinf): % change in ERα level; DMSO = 0%, fulvestrant = 100% change
Conditions: 4 hours, plateau of the maximal effect, DMSO and fulvestrant define 0% and 100% change in ESR1, Table 1a
Method: All of the exemplary Formula I, II, and III compounds in Tables 1a and 1b were made and characterized by LCMS [M+H]^+ (liquid chromatography mass spectroscopy) with detection of parent ion. All of the exemplary Formula I, II, and III compounds in Tables 1a and 1b were tested for binding to ERa (Estrogen Receptor alpha) and biological activity according to the assays, protocols, and procedures of Examples 901-907. ER-alpha MCF7 HCS Sinf (%) values in Tables 1a and 1b were measured by the Breast Cancer Cell ERa High Content Fluorescence Imaging Degradation Assay of Example 901. ER-alpha MCF7 HCS EC50 (μM) values in Tables 1a and 1b were measured by the in vitro cell proliferation assays described in Examples 902 and 903. The rat uterine wet weight assays of Examples 906 and 907 allow rapid determination of compound antagonist activity in an ER responsive tissue (immature rat uterus) while competing against the native ER ligand estradiol, i.e. antagonist mode (Ashby, J.; et al (1997) Regulatory toxicology and pharmacology: RTP, 25 (3):226-31). Exemplary Formula I, II, and III compounds in Tables 1a and 1b have the following structures, corresponding names (ChemBioDraw, Version 12.0.2, CambridgeSoft Corp., Cambridge Mass.), and biological activity. Where more than one name is associated with a Formula I, II, and III compound or intermediate, the chemical structure shall define the compound.
MCF7 breast cancer cells were seeded on day 1 at a density of 10,000 cells per well in 384 well poly-lysine coated tissue culture plate (Greiner # T-3101-4), in 50 μL/well RPMI (phenol red free), 10% FBS (Charcoal stripped), containing L-glutamine. On day 2, compounds were prepared at 2 compound source concentrations: 100 μM and 1 μM (ultimately to give 2 overlapping titration curves), in a Labcyte low dead volume plate, 10 μL/well, and 10 μL of DMSO in designated wells for backfill, and 5 μM Fulvestrant (control compound) in designated wells. Compounds and controls were dispensed using a Labcyte Echo acoustic dispenser to dispense compounds with a predefined serial dilution (1.8×, 10 point, in duplicate) and appropriate backfill and control compounds (final total volume transferred was 417.5 nL and compound dispense volume ranges from 2.5 nL to 417.5 nL; 0.84% DMSO (v/v) final), ultimately producing a concentration range from 0.05 nM to 835 nM. Cell plates were incubated at 37° C., for 4 hours. Fixation and permeabilization were carried out using a Biotek EL406 plate washer and dispenser as follows. Cells were fixed by addition of 15 μL of 16% paraformaldehyde (Electron Microscopy Sciences #15710-S) directly to the 50 μL cell culture medium in each well using the peristaltic pump 5 μL cassette on a Biotek EL406 (final concentration of formaldehyde was 3.7% w/v). Samples were incubated 30 minutes. Well contents was aspirated and 50 μL/well of Phosphate Buffered Saline (PBS) containing 0.5% w/v bovine serum albumen, 0.5% v/v Triton X-100 (Antibody Dilution Buffer) was added to each well. Samples were incubated for 30 minutes. Well contents were aspirated and washed 3 times with 100 μL/well of PBS. Immunofluorescence staining of estrogen receptor alpha (ESR1) was carried out using a Biotek EL406 plate washer and dispenser as follows. The well supernatant was aspirated from the wells and 25 μL/well of anti-ESR1 mAb (F10) (Santa Cruz sc-8002) diluted 1:1000 in Antibody Dilution Buffer was dispensed. Samples were incubated for 2 hours at room temperature. Samples were washed 4 times with 100 μL/well of PBS. 25 uL (microliters)/well of secondary antibody solution (Alexafluor 488 conjugate anti-mouse IgG (LifeTechnologies # A21202) diluted 1:1000 and Hoechst 33342 1 μg/ml diluted in Antibody Dilution Buffer) were dispensed into each well. Samples were incubated for 2 hours at room temperature. Samples were washed 3 times with 100 μL/well of PBS using a Biotek EL406. Quantitative fluorescence imaging of ESR1 was carried out using a Cellomics Arrayscan V (Thermo). […]

ER-alpha MCF7HCS Sinf [%] | SMILES
−100 | C[C@@H]1Cn2c(cc3ccccc32)[C@@H](c2c(F)cc(NC3CN(CCCF)C3)cc2F)N1CC(C)(C)F [Example 127, N-(3,5-Difluoro-4-((1R,3R)-2-(2-fluoro-2-methylpropyl)-3-methyl-1,2,3,4-tetrahydropyrazino[1,2-a]indol-1-yl)phenyl)-1-(3-fluoropropyl)azetidin-3-amine]
−88.0 | C[C@@H]1Cc2c([nH]c3ncccc23)[C@@H](c2c(F)cc(OC3CN(CCCF)C3)cc2F)N1CC(C)(C)F (single isomer, unassigned) [Example 120]
−75 | C[C@H]1CCN(CC(C)(C)F)[C@@H](c2c(F)cc(OCCN3CC(CF)C3)cc2F)c2[nH]c3ccccc3c21 [Example 124, (1S,5S)-1-(2,6-difluoro-4-(2-(3-(fluoromethyl)azetidin-1-yl)ethoxy)phenyl)-2-(2-fluoro-2-methylpropyl)-5-methyl-1,2,3,4,5,10-hexahydroazepino[3,4-b]indole]

The remaining lines, values behind:

SMILES | ER-alpha MCF7HCS Sinf [%]
CC(C)C(=O)N1[C@H](c2c(F)cc(OCCN3CC(CF)C3)cc2F)c2oc3ccccc3c2C[C@H]1C (single isomer, unassigned) [Example 101] | −94.5
C[C@@H]1Cc2c([nH]c3ccccc23)[C@H]2c3c(F)cc(OCCN4CC(CF)C4)cc3OCC(F)(F)CN21 [Example 112, (10R,16bR)-1,7,7-Trifluoro-3-(2-(3-(fluoromethyl)azetidin-1-yl)ethoxy)-10-methyl-7,8,10,11,16,16b-hexahydro-6H-benzo[2′,3′][1,5]oxazocino[5′,4′:1,2]pyrido[3,4-b]indole] | −50
C[C@@H]1Cc2sc3ccccc3c2[C@@H](c2ccc(OCCN3CC(CF)C3)cc2)N1CC(C)(C)F [Example 128, (1R,3R)-2-(2-fluoro-2-methylpropyl)-1-(4-(2-(3-(fluoromethyl)azetidin-1-yl)ethoxy)phenyl)-3-methyl-1,2,3,4-tetrahydrobenzo[4,5]thieno[3,2-c]pyridine] | −101
C[C@H]1Cc2sc3ccccc3c2[C@H](c2ccc(OCCN3CC(CF)C3)cc2)N1CC(C)(C)F [Example 129, (1S,3S)-2-(2-Fluoro-2-methylpropyl)-1-(4-(2-(3-(fluoromethyl)azetidin-1-yl)ethoxy)phenyl)-3-methyl-1,2,3,4-tetrahydrobenzo[4,5]thieno[3,2-c]pyridine] | −43.8
C[C@@H]1Cc2[nH]c3ccccc3c2[C@@H](c2c(F)cc(NC3CN(CCCF)C3)cc2F)N1CC(F)F [Example 150, N-(4-((1S,3R)-2-(2,2-difluoroethyl)-3-methyl-2,3,4,5-tetrahydro-1H-pyrido[4,3-b]indol-1-yl)-3,5-difluorophenyl)-1-(3-fluoropropyl) azetidin-3-amine] | −99.4
C[C@@H]1Cc2c(oc3ccccc23)[C@@H](c2c(F)cc(NC3CN(CCCF)C3)cc2F)N1CC(F)(F)CO (single isomer, unassigned) [Example 157] | −102
C[C@@H]1Cc2c(sc3ccccc23)[C@@H](c2c(F)cc(NC3CN(CCCF)C3)cc2F)N1CC(F)(F)CO (single isomer, unassigned) [Example 159] | −102

Same assay, conditions: 4 hours, plateau of the maximal effect, DMSO and fulvestrant define 0% and 100% change in ESR1, Table 1b

ERalpha (WT) MCF7HCS (Sinf) | SMILES
−92.3 | C[C@H]1Cc2sc3ccccc3c2[C@H](c2c(F)cc(NC3CN(CCCF)C3)cc2F)N1CC(F)(F)CO [Example 165, 3-((1S,3S)-1-(2,6-difluoro-4-((1-(3-fluoropropyl)azetidin-3-yl)amino)phenyl)-3-methyl-3,4-dihydrobenzo[4,5]thieno[3,2-c]pyridin-2(1H)-yl)-2,2-difluoropropan-1-ol]
−97.3 | COc1cc2c3c([nH]c2cn1)[C@@H](c1c(F)cc(NC2CN(CCCF)C2)cc1F)N(CC(F)(F)CO)[C@H](C)C3 [Example 161, 3-((1R,3R)-1-(2,6-Difluoro-4-((1-(3-fluoropropyl)azetidin-3-yl)amino)phenyl)-6-methoxy-3-methyl-3,4-dihydro-1H-pyrrolo[2,3-c:5,4-c′]dipyridin-2(9H)-yl)-2,2-difluoropropan-1-ol]
